Measurements: patent US12083101B2, “Biaryl derivatives as YAP/TAZ-TEAD protein-protein interaction inhibitors” (Novartis AG, priority 2020, dated 2024)
Where a name gives a salt, the structure may show the parent alone.

The compounds below were run against Avi-humanTEAD4 217-434 / Cy5 labeled humanYAP 60-100 (Homo sapiens (Human), UniProt Q15561) (assay: TR-FRET YAP-TEAD4 in-vitro biochemical assay). Details: 1 nM Avi-humanTEAD4 217-434, 20 nM Cy5-humanYAP 60-100, 1 h room temperature.
Assay type: binding
Protocol: N-terminus Cy5 labeled humanYAP^60-100 (20 nM) was then added to this preparation. Compounds were dissolved at 10 mM in 100% DMSO and serial dilutions were made in 100% DMSO. The diluted compound solutions were incubated in white 384-well plates (Greiner Bio-One) for 1 h at room temperature with the above described mix. The final DMSO concentration present in the assay was 1%. […] The IC50 values were estimated by fitting the data by nonlinear fit regression (GraphPad Prism).

Sequence of Avi-humanTEAD4 217-434 / Cy5 labeled humanYAP 60-100 (Q15561 217-434): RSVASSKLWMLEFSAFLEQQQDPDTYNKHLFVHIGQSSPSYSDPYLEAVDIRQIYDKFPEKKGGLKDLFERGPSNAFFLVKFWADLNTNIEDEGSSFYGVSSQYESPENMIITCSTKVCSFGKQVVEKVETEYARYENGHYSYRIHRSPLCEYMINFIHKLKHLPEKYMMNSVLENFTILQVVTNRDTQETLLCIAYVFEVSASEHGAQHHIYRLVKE

SMILES	IC50
Cc1cccc(C(N)=O)c1-c1c(Cl)ccc2c1C[C@@](CN)(c1ccccc1)O2 (atropisomer, axis not shown) [Example 6, 2-((2S,4R)-2-(aminomethyl)-5-chloro-2-phenyl-2,3-dihydrobenzofuran-4-yl)-3-methylbenzamide]	376 nM
NC[C@@]1(c2ccccc2)Cc2c(ccc(Cl)c2-c2c(C(N)=O)ccc(OCC(=O)O)c2F)O1 (atropisomer, axis not shown) [Example 16, 2-(3-((2S,4S)-2-(aminomethyl)-5-chloro-2-phenyl-2,3-dihydrobenzofuran-4-yl)-4-carbamoyl-2-fluorophenoxy)acetic acid trifluoroacetate salt]	6 nM
NC[C@@]1(c2ccccc2)Cc2c(ccc(Cl)c2-c2c(C(N)=O)cnc(OC(F)F)c2F)O1 (atropisomer, axis not shown) [Example 19, 4-((2S,4S)-2-(Aminomethyl)-5-chloro-2-phenyl-2,3-dihydrobenzofuran-4-yl)-6-(difluoromethoxy)-5-fluoronicotinamide]	3 nM
NC[C@@]1(c2ccccc2)Cc2c(cc(F)c(Cl)c2-c2c(C(N)=O)ccc(OC(F)(F)CO)c2F)O1 (atropisomer, axis not shown) [Example 36, 2-((2S,4S)-2-(aminomethyl)-5-chloro-6-fluoro-2-phenyl-2,3-dihydrobenzofuran-4-yl)-4-(1,1-difluoro-2-hydroxyethoxy)-3-fluorobenzamide]	10 nM
CS(=O)(=O)COc1ccc(C(N)=O)c(-c2c(Cl)c(F)cc3c2C[C@@](CN)(c2ccccc2)O3)c1F (atropisomer, axis not shown) [Example 40, 2-((2S,4S)-2-(aminomethyl)-5-chloro-6-fluoro-2-phenyl-2,3-dihydrobenzofuran-4-yl)-3-fluoro-4-((methylsulfonyl)methoxy)benzamide]	42 nM
NC[C@@]1(c2ccccc2)Cc2c(cc(F)c(Cl)c2-c2c(C(N)=O)ccc(OCCC(F)F)c2F)O1 (atropisomer, axis not shown) [Example 41, 2-((2S,4S)-2-(aminomethyl)-5-chloro-6-fluoro-2-phenyl-2,3-dihydrobenzofuran-4-yl)-4-(3,3-difluoropropoxy)-3-fluorobenzamide]	89 nM
CNC[C@@]1(c2ccccc2)Cc2c(cc(F)c(Cl)c2-c2c(C(N)=O)cnc(OCCO)c2F)O1 (atropisomer, axis not shown) [Example 49, 4-((2S,4S)-5-Chloro-6-fluoro-2-((methylamino)methyl)-2-phenyl-2,3-dihydrobenzofuran-4-yl)-5-fluoro-6-(2-hydroxyethoxy)nicotinamide]	5 nM
CN(C)C(=O)CN1CCC(NC[C@@]2(c3ccccc3)Cc3c(cc(F)c(Cl)c3-c3c(C(N)=O)ccc(OC(F)F)c3F)O2)CC1 (atropisomer, axis not shown) [Example 60, 2-((2S,4S)-5-chloro-2-(((1-(2-(dimethylamino)-2-oxoethyl)piperidin-4-yl)amino)methyl)-6-fluoro-2-phenyl-2,3-dihydrobenzofuran-4-yl)-4-(difluoromethoxy)-3-fluorobenzamide]	20 nM
CS(=O)(=O)N1CCC(NC[C@@]2(c3ccccc3)Cc3c(cc(F)c(Cl)c3-c3c(C(N)=O)ccc(OC(F)F)c3F)O2)CC1 (atropisomer, axis not shown) [Example 63, 2-((2S,4S)-5-chloro-6-fluoro-2-(((1-(methylsulfonyl)piperidin-4-yl)amino)methyl)-2-phenyl-2,3-dihydrobenzofuran-4-yl)-4-(difluoromethoxy)-3-fluorobenzamide]	69 nM
C[C@@H]1C[C@H](NC[C@@]2(c3ccccc3)Cc3c(cc(F)c(Cl)c3-c3c(C(N)=O)ccc(OCCO)c3F)O2)C[C@H](C)O1 (atropisomer, axis not shown) [Example 65a, 2-((2S,4S)-5-chloro-2-((((2R,4r,6S)-2,6-dimethyltetrahydro-2H-pyran-4-yl)amino)methyl)-6-fluoro-2-phenyl-2,3-dihydrobenzofuran-4-yl)-3-fluoro-4-(2-hydroxyethoxy)benzamide]	4 nM
COc1ncc(C(N)=O)c(-c2c(Cl)c(F)cc3c2C[C@@](CN[C@H]2CC[C@@](C)(O)CC2)(c2ccccc2)O3)c1F (atropisomer, axis not shown) [Example 66b, 4-((2S,4S)-5-chloro-6-fluoro-2-((((cis)-4-hydroxy-4-methylcyclohexyl)amino)methyl)-2-phenyl-2,3-dihydrobenzofuran-4-yl)-5-fluoro-6-methoxynicotinamide]	2 nM

The next lines start with the values.

IC50	SMILES
65 nM	NC[C@@]1(c2ccccc2)Cc2c(ccc(Cl)c2-c2c(Cl)cccc2C(N)=O)O1 (atropisomer, axis not shown) [Example 7, 2-((2S,4S)-2-(aminomethyl)-5-chloro-2-phenyl-2,3-dihydrobenzofuran-4-yl)-3-chlorobenzamide trifluoroacetate salt]
4 nM	NC[C@@]1(c2ccccc2)Cc2c(ccc(Cl)c2-c2c(C(N)=O)ccc(Cl)c2F)O1 (atropisomer, axis not shown) [Example 8, 2-((2S,4S)-2-(aminomethyl)-5-chloro-2-phenyl-2,3-dihydrobenzofuran-4-yl)-4-chloro-3-fluorobenzamide]
4 nM	NC[C@@]1(c2ccccc2)Cc2c(ccc(Cl)c2-c2c(C(N)=O)ccc(F)c2F)O1 (atropisomer, axis not shown) [Example 9, 2-((2S,4S)-2-(aminomethyl)-5-chloro-2-phenyl-2,3-dihydrobenzofuran-4-yl)-3,4-difluorobenzamide]
13 nM	CC(=O)N1CCO[C@@H](COc2ccc(C(N)=O)c(-c3c(Cl)ccc4c3C[C@@](CN)(c3ccccc3)O4)c2F)C1 (atropisomer, axis not shown) [Example 17, 4-(((R)-4-acetylmorpholin-2-yl)methoxy)-2-((2S,4S)-2-(aminomethyl)-5-chloro-2-phenyl-2,3-dihydrobenzofuran-4-yl)-3-fluorobenzamide]
9 nM	COc1ccc(C(=O)NC2CC2)c(-c2c(Cl)ccc3c2C[C@@](CN)(c2ccccc2)O3)c1F (atropisomer, axis not shown) [Example 23, 2-((2S,4S)-2-(aminomethyl)-5-chloro-2-phenyl-2,3-dihydrobenzofuran-4-yl)-N-cyclopropyl-3-fluoro-4-methoxybenzamide]
6 nM	Cn1nccc1NC(=O)c1ccc(F)c(F)c1-c1c(Cl)ccc2c1C[C@@](CN)(c1ccccc1)O2 (atropisomer, axis not shown) [Example 24, 2-((2S,4S)-2-(aminomethyl)-5-chloro-2-phenyl-2,3-dihydrobenzofuran-4-yl)-3,4-difluoro-N-(1-methyl-1H-pyrazol-5-yl)benzamide]
10 nM	CNC(=O)c1cnc(OCCO)c(F)c1-c1c(Cl)c(F)cc2c1C[C@@](CN)(c1ccccc1)O2 (atropisomer, axis not shown) [Example 45, 4-((2S,4S)-2-(Aminomethyl)-5-chloro-6-fluoro-2-phenyl-2,3-dihydrobenzofuran-4-yl)-5-fluoro-6-(2-hydroxyethoxy)-N-methylnicotinamide]
3 nM	CNC[C@@]1(c2ccccc2)Cc2c(cc(F)c(Cl)c2-c2c(C(N)=O)ccc(OC)c2F)O1 (atropisomer, axis not shown) [Example 46, 2-((2S,4S)-5-Chloro-6-fluoro-2-((methylamino)methyl)-2-phenyl-2,3-dihydrobenzofuran-4-yl)-3-fluoro-4-methoxybenzamide]
30 nM	NC(=O)c1ccc(OC(F)F)c(F)c1-c1c(Cl)c(F)cc2c1C[C@@](CNCC1CC1)(c1ccccc1)O2 (atropisomer, axis not shown) [Example 50, 2-((2S,4S)-5-Chloro-2-(((cyclopropylmethyl)amino)methyl)-6-fluoro-2-phenyl-2,3-dihydrobenzofuran-4-yl)-4-(difluoromethoxy)-3-fluorobenzamide]
6 nM	CNC[C@@]1(c2ccccc2)Cc2c(cc(F)c(Cl)c2-c2c(C(=O)NC)cnc(OCCO)c2F)O1 (atropisomer, axis not shown) [Example 53, 4-((2S,4S)-5-chloro-6-fluoro-2-((methylamino)methyl)-2-phenyl-2,3-dihydrobenzofuran-4-yl)-5-fluoro-6-(2-hydroxyethoxy)-N-methylnicotinamide]
455 nM	C[C@@H]1C[C@@H](NC[C@@]2(c3ccccc3)Cc3c(cc(F)c(Cl)c3-c3c(C(N)=O)ccc(OCCO)c3F)O2)C[C@H](C)O1 (atropisomer, axis not shown) [Example 65b, 2-((2S,4S)-5-chloro-2-((((2R,4s,6S)-2,6-dimethyltetrahydro-2H-pyran-4-yl)amino)methyl)-6-fluoro-2-phenyl-2,3-dihydrobenzofuran-4-yl)-3-fluoro-4-(2-hydroxyethoxy)benzamide]
2 nM	COc1ncc(C(N)=O)c(-c2c(Cl)c(F)cc3c2C[C@@](CN[C@H]2CC[C@](C)(O)CC2)(c2ccccc2)O3)c1F (atropisomer, axis not shown) [Example 66a, 4-((2S,4S)-5-chloro-6-fluoro-2-((((trans)-4-hydroxy-4-methylcyclohexyl)amino)methyl)-2-phenyl-2,3-dihydrobenzofuran-4-yl)-5-fluoro-6-methoxynicotinamide]
2 nM	C[C@]1(O)CC[C@@H](NC[C@@]2(c3ccccc3)Cc3c(cc(F)c(Cl)c3-c3c(C(N)=O)ccc(OC[C@H]4CCCO4)c3F)O2)CC1 (atropisomer, axis not shown) [Example 67a, 2-((2S,4S)-5-chloro-6-fluoro-2-((((cis)-4-hydroxy-4-methylcyclohexyl)amino)methyl)-2-phenyl-2,3-dihydrobenzofuran-4-yl)-3-fluoro-4-(((R)-tetrahydrofuran-2-yl)methoxy)benzamide]
